The test system of assay [1] is Calu-6 xenografts (human NSCLC tumor cell line). As to the kind of experiment: Calu-6 NSCLC subcutaneous xenograft, single agents and combination. Type of assay: in vivo, mice. The following applies: Calu-6, d40; large tumors, ca. 350 mm^3 at start of treatment. Here is the method:
In order to analyse the anti-tumor effects of combining the inhibition of tumor angiogenesis by interfering with the VEGFR signalling cascade with the antitumor activity of inhibiting Aurora kinase B, the following in vivo experiment is performed. Nude mice carrying established subcutaneous Calu-6 xenografts (human NSCLC tumor cell line) are randomized and treated with either the Aurora B kinase inhibitor of this invention Compound X or BIBF 1120 alone or with the combination of both drugs. After termination of treatment the tumors on the control treated mice (black line with circles in FIG. 1) are in average about 1100 mm^3 in volume.
FIG. 1: Calu-6 NSCLC model, combination BIBF 1120+Compound X, schedule (cf. Drawings; control group: line with circles; BIBF 1120 treated group: line with rhombs; Compound X (AKI) treated group: line with triangles; Combo BIBF 1120+Compound X (AKI) treated group: line with squares).

In the next assay the target is human Aurora B kinase (Homo sapiens, UniProt Q96GD4). As to the kind of experiment: Enzymatic kinase assay, Aurora B. The class given is biochemical. Here is the method: (§1) Compound X was profiled in enzymatic kinase assays as well as in proliferation assays on various human cancer cell lines. Cell cycle status was assessed by DNA content analysis (Cellomics ArrayScan, FACScalibur). Histone H3 phosphorylation was determined by immunofluorescence (Cellomics ArrayScan). Apoptosis was detected by Western blotting for cleaved PARP and microscopic enumeration of DAPI-stained cells showing nuclear fragmentation. Senescent cells were identified by staining for SA-β-Gal activity.

Another assay addresses T1, Aurora A kinase (Homo sapiens, UniProt O14965).
T1 sequence (O14965 1-403): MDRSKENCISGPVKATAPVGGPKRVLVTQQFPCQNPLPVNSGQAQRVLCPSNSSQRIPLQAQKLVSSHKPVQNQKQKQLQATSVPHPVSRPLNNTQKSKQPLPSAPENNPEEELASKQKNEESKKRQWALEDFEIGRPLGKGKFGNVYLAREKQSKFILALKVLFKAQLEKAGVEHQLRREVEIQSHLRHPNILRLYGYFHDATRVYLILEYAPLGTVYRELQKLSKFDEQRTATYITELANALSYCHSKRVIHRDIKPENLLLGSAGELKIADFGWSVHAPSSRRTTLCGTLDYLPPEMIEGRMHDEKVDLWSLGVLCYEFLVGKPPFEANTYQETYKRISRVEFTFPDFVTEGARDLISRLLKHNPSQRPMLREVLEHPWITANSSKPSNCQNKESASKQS
In words: Enzymatic kinase assay, Aurora A. Type of assay: biochemical. Here is the method:
as §1

A further assay deals with T2, Aurora C kinase (Homo sapiens, UniProt Q9UQB9).
T2 sequence (Q9UQB9 1-309): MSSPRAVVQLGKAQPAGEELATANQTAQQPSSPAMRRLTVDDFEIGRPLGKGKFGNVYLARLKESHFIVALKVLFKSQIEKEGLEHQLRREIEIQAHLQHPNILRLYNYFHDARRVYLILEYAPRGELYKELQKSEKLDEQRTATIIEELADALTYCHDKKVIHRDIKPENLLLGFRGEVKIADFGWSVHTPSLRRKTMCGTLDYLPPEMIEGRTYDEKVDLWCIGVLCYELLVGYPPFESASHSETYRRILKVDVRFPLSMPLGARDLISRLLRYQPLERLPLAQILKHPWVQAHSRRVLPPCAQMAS
As to the kind of experiment: Enzymatic kinase assay, Aurora C. Type of assay: biochemical. As to the method:
as §1

For assay [2], the system named is 46 additional kinases representative of the human kinome. In words: Panel of 46 additional kinases. Type of assay: biochemical. As to conditions: Compound at 1000 nM. Here is the method: as §1
In a further assay the test system is human cancer cell lines. As to the kind of experiment: Proliferation assays on human cancer cell lines. The following applies: >20 human cancer cell lines; read-out: EC50 for inhibition of proliferation. The class given is cell-based. Here is the method: as §1
In assay [3] the test system is histone H3 phosphorylation in NCI-H460 cells. As to the kind of experiment: Histone H3 phosphorylation by immunofluorescence (Cellomics ArrayScan). Type of assay: cell-based, human. As to the method: as §1
Assay [4] has as its system NCI-H460 cells. In words: Cell cycle status by DNA content analysis (polyploidy). Type of assay: cell-based, human. As to conditions: NCI-H460, within 48 h of treatment; increased from <5%. As to the method:
as §1

Assay [5] relates to NCI-H460 cells. As to the kind of experiment: Apoptosis: cleaved PARP Western blot and nuclear fragmentation of DAPI-stained cells. Type of assay: cell-based, human. As to conditions: NCI-H460, after 72 h and 96 h of treatment. As to the method:
as §1
(Immunoblotting shows a protein as a band on a membrane.)

Assay [6] concerns NCI-H460 cells. As to the kind of experiment: Senescence by SA-β-Gal staining. The class given is cell-based, human. As to conditions: NCI-H460, within 96 h; from <3%. Here is the method: as §1
For a further assay, the system named is HCT 116 colon carcinoma. As to the kind of experiment: HCT 116 colon carcinoma subcutaneous xenograft. The class given is in vivo, mice. The following applies: for T/C: HCT 116. As to the method:
(§2) BomTac:NMRI-Foxn1^nu mice were grafted subcutaneously with NCI-H460 non-small cell lung carcinoma (mutant KRAS, wild-type p53), HCT 116 colon carcinoma (mutant KRAS, wild-type p53) or BxPC-3 pancreas adenocarcinoma cells (wild-type KRAS, mutant p53). Treatment was initiated when the tumors had reached a volume of ˜50 mm^3. BI 811283 was injected intravenously once or twice weekly as a single bolus or b.i.d. Alternatively, the compound was administered once-weekly by a continuous 24 h infusion via subcutaneously implanted osmotic mini-pumps. Multiple dose levels and dosing schedules were evaluated.

Assay [7] has as its system NCI-H460 non-small cell lung carcinoma. As to the kind of experiment: NCI-H460 non-small cell lung carcinoma subcutaneous xenograft. The class given is in vivo, mice. As to conditions: for T/C: NCI-H460. Here is the method: as §2
The subject of assay [8] is BxPC-3 pancreas adenocarcinoma. As to the kind of experiment: BxPC-3 pancreas adenocarcinoma subcutaneous xenograft. The class given is in vivo, mice. The following applies: for T/C: BxPC-3. Here is the method:
as §2

The subject of a further assay is THP-1. As to the kind of experiment: AML cancer model THP-1. Type of assay: in vivo. As to conditions: THP-1 AML model.
For a further assay, the system named is MV-4; 11. In words: AML cancer model MV-4;11. The class given is in vivo. As to conditions: MV-4;11 AML model.
The mark [9] stands for this setting: 15 BID mg/kg, weekly dose 60 mg/kg, (qdx2)x6, i.v.

Each structure is given as a SMILES string. Bounds are passed on as bounds.

Chain of human Aurora B kinase (Q96GD4 whole entry, the tested form may be a part): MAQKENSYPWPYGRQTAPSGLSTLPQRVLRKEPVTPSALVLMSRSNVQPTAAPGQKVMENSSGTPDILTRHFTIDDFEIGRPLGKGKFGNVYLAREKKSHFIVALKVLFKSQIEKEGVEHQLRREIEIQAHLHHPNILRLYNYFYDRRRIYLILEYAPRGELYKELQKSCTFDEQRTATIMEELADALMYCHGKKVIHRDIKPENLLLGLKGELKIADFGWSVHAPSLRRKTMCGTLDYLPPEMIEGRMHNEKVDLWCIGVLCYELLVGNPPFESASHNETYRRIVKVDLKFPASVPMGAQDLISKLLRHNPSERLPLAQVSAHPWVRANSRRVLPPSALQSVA

For the compound `COC(=O)c1ccc2c(c1)NC(=O)/C2=C(\Nc1ccc(N(C)C(=O)CN2CCN(C)CC2)cc1)c1ccccc1` [BIBF 1120, 3-Z-[1-(4-(N-((4-methyl-piperazin-1-yl)-methylcarbonyl)-N-methyl-amino)-anilino)-1-phenyl-methylene]-6-methoxycarbonyl-2-indolinone], the “median T/C value” in assay [1] was 50%.

The IC50 is the concentration needed to halve the response being measured. Low readings indicate inhibition by little substance, high ones a need for much substance. The T/C is the result in the treated group divided by that in the control group, in per cent. Consider `CC(C)NC(=O)[C@H]1CCC[C@H]1Nc1nc(Nc2ccc(C(=O)N(C)C3CCN(C)CC3)cc2)ncc1C(F)(F)F` [Compound X], for which the values for the IC50 against human Aurora B kinase, on Aurora A kinase and at Aurora C kinase were 9 nM, 70 nM and 17 nM, respectively. The “kinases inhibited by more than 50%” value in [2] is 7/46. The EC50 in the assay with human cancer cell lines lay in the range of 2 to 14 nM. In addition, the “time to inhibition of histone H3 phosphorylation” value in assay [3] was under 1 h. For the same compound, in the assay on NCI-H460 cells [4], the “fraction of polyploid cells” value was over 80%. Also, the “cleaved poly (ADP-ribose) polymerase” value in the assay with NCI-H460 cells [5] is listed as “An increase of cleaved poly (ADP-ribose) polymerase”. For the same compound, in the assay on NCI-H460 cells [5] (from <1%), the “fraction of cells with nuclear fragmentation” value was 7%. Moreover, the “senescent cells, fraction of the population” value with NCI-H460 cells [6] stood at 25%. The “effect on large tumors” value in the assay with HCT 116 colon carcinoma (HCT 116, large tumors (350 mm^3)) is “regression of large tumors (350 mm^3) was induced”. Further, the T/C in the assay on HCT 116 colon carcinoma (20 mg/kg, weekly dose 20 mg/kg, (q7d)x5, 24 h cont. inf.) was determined as 2%; in the assay on HCT 116 colon carcinoma (30 mg/kg, weekly dose 60 mg/kg, (qdx2)x6, i.v.), 25%; in the assay on HCT 116 colon carcinoma (setting [9]), 4%; in the assay with HCT 116 colon carcinoma (37.5 BID mg/kg, weekly dose 75 mg/kg, (q7d)x6, i.v.) it was 8%; in assay [7] (20 mg/kg, weekly dose 20 mg/kg, (q7d)x3, 24 h cont. inf.), 8%; in assay [7] (15 BID mg/kg, weekly dose 60 mg/kg, (qdx2)x3, i.v.), 27%. The T/C came to 6% in assay [8] (20 mg/kg, weekly dose 20 mg/kg, (q7d)x4, 24 h cont. inf.) and 17% in assay [8] (setting [9]). The “histological examination of tumors” value in the assay on HCT 116 colon carcinoma (HCT 116 tumors) is “accumulation of enlarged, multinucleated cells”. In addition, the “phosphorylation of histone H3 in tumors (biomarker analysis)” value with HCT 116 colon carcinoma (HCT 116 tumors, therapeutic doses) was “inhibited phosphorylation of histone H3”. Also, the “effect on tumor growth” value in the assay with HCT 116 colon carcinoma (colon carcinoma model, multiple cycles, total weekly doses of 20 to 75 mg/kg) was “dose-dependent inhibition of tumor growth or tumor regression”; in assay [7] (non-small cell lung cancer model, multiple cycles, total weekly doses of 20 to 75 mg/kg), “dose-dependent inhibition of tumor growth or tumor regression”; in [8] (pancreas carcinoma model, multiple cycles, total weekly doses of 20 to 75 mg/kg) it was “dose-dependent inhibition of tumor growth or tumor regression”. Further, the T/C value was found to be 7% in the assay on THP-1 and 5% in the assay with MV-4; 11. Besides, the “median T/C value” in assay [1] came out at 45%.

These data come from patent US20130289014A1, “Combination therapy in treatment of oncological and fibrotic diseases” (BOEHRINGER INGELHEIM INTERNATIONAL GMBH, priority 2010, published 2013).
